Earlier results on one compound are cited in patent publication US5032582A, “Method for treating fungal infections with amphotericin B/cholesterol sulfate composition” (Liposome Technology, Inc., priority 1989, dated 1991).

The conditions of the series: in vivo.

For the compound `CC(C)CCC[C@@H](C)[C@H]1CC[C@H]2[C@@H]3CC=C4C[C@@H](OS(=O)(=O)[O-])CC[C@]4(C)[C@H]3CC[C@]12C.[Na+]` [cholesterol sulfate, cholesterol 3-sulphate, sodium salt], the “toxicity” value is given as “no known toxicity”.
